What was measured:
[1] = system: subcutaneous 4T1 breast mouse tumor model; conditions: day 5 iv; mitomycin C 6 mg/kg; prodrug 40 mg/kg; combination prodrug 30 mg/kg + liposome-entrapped doxorubicin 8 mg/kg; median tumor size
Source text: A subcutaneous 4T1 breast mouse tumor model was selected, and established by inoculating tumor cells subcutaneously into BALB/c f mice. The day of sc injection with tumor cells was defined as study day zero.

[2] = system: N87 human gastric tumor model; conditions: N87 in footpad of nude mice; mitomycin C 5 mg/kg iv or prodrug 35 mg/kg iv days 6, 13; paclitaxel 15 mg/kg ip days 6, 10, 13, 17; mice with unacceptable toxicity removed
Experimental: An N87 human gastric tumor model was selected, and established by inoculating N87 tumor cells into the footpad of nude mice via subcutaneous (sc) injection. The day of sc injection with tumor cells was defined as study day zero.
The tumor size of the animals in each treatment group was measured.

[3] = system: C26 (colon carcinoma) mouse tumor model; experiment: Anti-tumor effect in colon carcinoma tumor model (Example 6); assay type: in vivo; conditions: C26 ip in BALB/c mice; gemcitabine 100 mg/kg ip or paclitaxel 15 mg/kg ip days 5, 8, 12, 15, alone or with prodrug 30 mg/kg iv; 45 days
Source text: C26 (colon carcinoma) mouse tumor model was used by injecting BALB/c F intraperitoneally with 1 million tumor cells.

[4] = system: N87 human gastric tumor model; experiment: Anti-tumor effect in gastric tumor model (Example 7); assay type: in vivo
Source text: An N87 human gastric tumor model was selected, and established by inoculating 10^6 N87 tumor cells into the footpad of nude mice via subcutaneous (sc) injection. The day of sc injection with tumor cells was defined as study day zero.

[5] = system: human A375 melanoma subcutaneous tumor model; conditions: prodrug 25 mg/kg iv days 11, 18; paclitaxel 15 mg/kg ip days 11, 14, 18, 21; alone or combined
Experimental: A human A375 melanoma subcutaneous tumor model was selected, and established by inoculating tumor cells into nude mice via subcutaneous (sc) injection. The day of sc injection with tumor cells was defined as study day zero.
The tumor size of the animals (n=6) in each treatment group was measured, and the median tumor size (in mm) is shown in FIG. 6 as a function of days post tumor inoculation.

SMILES	tumor growth (in words) [1]	tumor size (in words) [2]	survival (in words) [3]	animals tumor free at observation day 50 ([4]; N87 in footpad of nude mice, prodrug 25 mg/kg iv days 5, 12, paclitaxel 15 mg/kg ip days 5, 8, 12, 15)	reduction in tumor volume ([4]; individual tumor volumes measured to 48 days post inoculation (FIGS. 5C-5H))	tumor growth (in words) [5]
CO[C@@]12[C@H](COC(N)=O)C3=C(C(=O)C(C)=C(N)C3=O)N1C[C@@H]1N[C@@H]12 [mitomycin C]	continued growth in tumor size	continuous increase in tumor size				
CC(=O)O[C@H]1C(=O)[C@@]2(C)[C@H]([C@H](OC(=O)c3ccccc3)[C@]3(O)C[C@H](OC(=O)[C@H](O)[C@@H](NC(=O)c4ccccc4)c4ccccc4)C(C)=C1C3(C)C)[C@]1(OC(C)=O)CO[C@@H]1C[C@@H]2O [paclitaxel]		continuous increase in tumor size	fared poorly, with nearly all animals failing to survive the study period	two of eight animals	Reduction in tumor volume was not observed	either a shorter plateau period of attenuated tumor growth or an increase in tumor growth sooner than animals treated with the combination therapy
Nc1ccn([C@@H]2O[C@H](CO)[C@@H](O)C2(F)F)c(=O)n1 [gemcitabine, 2′-deoxy-2′,2′-difluoro-cytidine]			fared poorly, with nearly all animals failing to survive the study period			
